Reference: ChEMBL document CHEMBL1201862, “PubChem BioAssay data set” (2004)
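Compound exposure: 48 hours, 5 concentrations, 96-well plates. The concentration for 50% growth inhibition is given as GI50.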 Active and inactive are the calls of the source. No stated cut-off is given here; in the data, active = GI50 up to about 1.1 µM and inactive = higher.

How the values were obtained:
Assay in all cases: NCI-60 cell line screen, 48 h
MDA-N = system: MDA-N
OVCAR-8 = system: OVCAR-8
OVCAR-3 = system: OVCAR-3
KM12 = system: KM12
Malme-3M = system: Malme-3M
RPMI-8226 = system: RPMI-8226
SK-MEL-5 = system: SK-MEL-5
OVCAR-5 = system: OVCAR-5
HL-60 = system: HL-60
A549 = system: A549
SK-MEL-2 = system: SK-MEL-2
TK-10 = system: TK-10
HCC 2998 = system: HCC 2998
SK-MEL-28 = system: SK-MEL-28
COLO 205 = system: COLO 205
U-251 = system: U-251
NCI-H522 = system: NCI-H522
UO-31 = system: UO-31
M14 = system: M14
HOP-62 = system: HOP-62

Measured: GI50

Nc1ccc(COC(O)CN2CCCCC2)cc1[N+](=O)[O-] (stereo not drawn)
inactive: MDA-N > 100 µM | OVCAR-8 > 100 µM | OVCAR-3 > 100 µM | KM12 > 100 µM | Malme-3M > 100 µM | RPMI-8226 > 100 µM | SK-MEL-5 > 100 µM | OVCAR-5 > 100 µM | HL-60 > 100 µM | A549 > 100 µM | SK-MEL-2 > 100 µM | TK-10 > 100 µM | HCC 2998 > 100 µM | SK-MEL-28 > 100 µM | COLO 205 > 100 µM | U-251 > 100 µM | NCI-H522 > 100 µM | UO-31 > 100 µM | M14 > 100 µM

CCOc1cc(CC[N+](C)(C)C)c2c(ccc3ccc(OC)c(OC)c32)c1OC
inactive: MDA-N > 100 µM | OVCAR-8 > 100 µM | OVCAR-3 53.3 µM | Malme-3M > 100 µM | RPMI-8226 16.8 µM | SK-MEL-5 63 µM | A549 > 100 µM | HCC 2998 > 100 µM | SK-MEL-28 > 100 µM | COLO 205 > 100 µM | U-251 > 100 µM | NCI-H522 > 100 µM | UO-31 > 100 µM | M14 > 100 µM

COc1cc(C(=O)n2c3ccc(Br)cc3c3nc4ccccc4nc32)cc(OC)c1OC
inactive: MDA-N > 100 µM | OVCAR-8 > 100 µM | OVCAR-3 > 100 µM | KM12 > 100 µM | Malme-3M > 100 µM | RPMI-8226 > 100 µM | SK-MEL-5 > 100 µM | OVCAR-5 > 100 µM | HL-60 > 100 µM | SK-MEL-2 62.8 µM | TK-10 32.7 µM | HCC 2998 > 100 µM | SK-MEL-28 > 100 µM | COLO 205 > 100 µM | HOP-62 > 100 µM | U-251 > 100 µM | NCI-H522 36.6 µM | UO-31 > 100 µM | M14 > 100 µM

O=C(c1ccccn1)c1nnn2ccccc12
inactive: MDA-N > 100 µM | OVCAR-8 > 100 µM | OVCAR-3 > 100 µM | KM12 > 100 µM | Malme-3M > 100 µM | RPMI-8226 > 100 µM | SK-MEL-5 > 100 µM | OVCAR-5 > 100 µM | HL-60 > 100 µM | A549 > 100 µM | SK-MEL-2 > 100 µM | TK-10 > 100 µM | HCC 2998 > 100 µM | SK-MEL-28 > 100 µM | COLO 205 > 100 µM | HOP-62 > 100 µM | U-251 > 100 µM | NCI-H522 > 100 µM | M14 > 100 µM

COc1cc2c(cc1OC)C(=O)/C(=C/c1ccc(O)cc1)CC2
inactive: MDA-N > 10 µM | OVCAR-8 > 10 µM | OVCAR-3 > 10 µM | KM12 > 10 µM | Malme-3M > 10 µM | RPMI-8226 > 10 µM | SK-MEL-5 > 10 µM | OVCAR-5 > 10 µM | HL-60 7.31 µM | A549 > 10 µM | SK-MEL-2 > 10 µM | TK-10 > 10 µM | HCC 2998 > 10 µM | SK-MEL-28 > 10 µM | COLO 205 > 10 µM | HOP-62 > 10 µM | U-251 > 10 µM | UO-31 2.34 µM | M14 > 10 µM

CC(=O)Nc1c(C)cc2c(nc3n2CCC3O)c1[N+](=O)[O-] (stereo not drawn)
inactive: MDA-N > 100 µM | OVCAR-8 > 100 µM | OVCAR-3 > 100 µM | KM12 > 100 µM | Malme-3M > 100 µM | RPMI-8226 > 100 µM | SK-MEL-5 > 100 µM | OVCAR-5 > 100 µM | HL-60 > 100 µM | A549 > 100 µM | SK-MEL-2 > 100 µM | HCC 2998 > 100 µM | SK-MEL-28 > 100 µM | COLO 205 > 100 µM | U-251 > 100 µM | NCI-H522 > 100 µM | UO-31 > 100 µM | M14 > 100 µM

O=c1[nH]nc(Cc2ccccc2)n1/N=C/c1c(O)ccc2ccccc12
inactive: MDA-N 54.6 µM | OVCAR-8 21 µM | OVCAR-3 17.1 µM | KM12 19.7 µM | Malme-3M 20.9 µM | RPMI-8226 19.8 µM | SK-MEL-5 18.6 µM | A549 32 µM | SK-MEL-2 38.1 µM | TK-10 33 µM | HCC 2998 33.4 µM | COLO 205 47.4 µM | U-251 18.2 µM | NCI-H522 16.6 µM | UO-31 36.1 µM
